The values that follow come from US9447033B2, “Potassium channel blockers” (Japan Tobacco Inc., priority 2008, dated 2016).

Assay [1] deals with T1, human Kv1.3 (Homo sapiens, UniProt P22001).
T1 construct: expressed in transfected cells
Put plainly: Kv1.3 Autopatch electrophysiology (whole cell). The assay is classed as cell-based. Particulars: compound at 1 μM; inhibition of charge movement relative to control; room temperature; read-out: hKv1.3 % Inh. Here is the method:
Kv1.3 Autopatch Electrophysiology Method
Cells stably transfected with cDNA for human Kv1.3 (in pcDNA3.1) were grown in Ex-cell 302 serum-free medium for CHO cells, supplemented with 10 μl/ml [100×] glutamine, 500 μg/ml G418 ([…]), and 1% HT supplement (50×, hypoxanthine and thymidine). Compounds were tested on these cells using the AutoPatch technology in whole cell mode.
The external bathing solution contained (in mM): 150 NaCl, 10 KCl, MgCl2, 3 CaCl2, 10 HEPES, pH 7.4 with NaOH. Patch pipettes were filled with an electrode solution of composition (in mM): 100 K-Gluconate, 20 KCl, 1 MgCl2, CaCl2, 10 HEPES, 11 EGTA, 5 ATP-Na2, 2 Glutathione pH 7.2 with KOH.
Compounds were dissolved in DMSO (100%) and made up in the external bather at a concentration of 1 μM immediately prior to use. All experiments were conducted at room temperature.
A cell suspension (10 ml), with a density of 6×10^6 cells, was aliquoted into a 15 ml centrifuge tube and stored at 4° C. before use. Prior to use a tube was taken and centrifuged at 1000 rpm for 4 mins at room temperature. The supernatant was then discarded, leaving a cell pellet at the bottom of the tube. The pellet was then resuspended using 1 ml of cold (4° C.), filtered (0.22 μm), 0.05% BSA/bather solution (0.05 g BSA/100 ml bather). The bottom of the tube was manually agitated followed by gentle tituration. The cell suspension was then placed in the AutoPatch™ temperature controlled cell-hotel at 14° C. and regularly titurated.
A length of Teflon capillary tubing was dipped into the cell suspension solution, and a column of fluid was taken up by negative pressure. The column of fluid was in electrically connectivity with a Ag/AeCl reference electrode. Borosilicate glass patch pipettes (from 1.5 mm OD, thin-walled filamented, GC150-TF capillary glass, Harvard) were pulled using a DMZ pipette puller (Zeitz Instruments), and were back-filled using the internal pipette solution, being careful that no bubbles remained at the tip or in the body of the pipette. Patch pipettes typically had resistances of 2.5-3.5 MΩ. Once filled, the pipette tip and a proportion of the shaft (˜15 mm) were dipped into Sigmacote (Sigma). The recording pipettes were placed in a multiwell array and mounted on the AutoPatch™ machine. Automated patch-clamping and drug-application was initiated by the operator, but thereafter AutoPatch.exe continued the experiment providing that pre-set conditions and criteria were satisfied.
Whole cell patch-clamp recordings were made using the AutoPatch™ rig, which incorporated an EPC9 or EPC10 amplifier (HEKA, Germany) under control of Pulse software (v8.54 or v8.76, HEKA, Germany), a cell applicator, automated drug application system (DAS), valve controller (VFI) and a suction device all at room temperature. This equipment was completely under the control of AutoPatch.exe and operator intervention was only made when there was a requirement to refill the bather reservoirs or to prevent the loss of a cell due to a technical error. […]
Electrophysiology voltage-step protocols and analysis of data was performed as follows. […] Online analysis of the hKv1.3 current during the application of compounds was performed by the Pulse (v8.54 or v8.76, HEKA, Germany), Excel (Microsoft, USA) and AutoPatch™ software, with the total charge measured during the whole of voltage step. Inhibition of charge movement in the presence of drug was calculated relative to control.

The target in assay [2] is hKv1.5 (Homo sapiens, UniProt P22460). As to the kind of experiment: Kv1.5 Autopatch electrophysiology (whole cell). It is filed as cell-based. Particulars: hKv1.5 current, test concentration not given, read-out: hKv1.5 % Inh. The procedure:
Kv1.5 Autopatch Electraphysiogogy Method
The external bathing solution contained (in mM): 150 NaCl, 10 KCl, […], 3 MgCl2, 1 CaCl2, 10 HEPES, pH 7.4. Patch pipettes were filled with an electrode solution of composition (in mM): 160 KCl, 0.5 MgCl2, 10 HEPES, 1 EGTA, pH 7.4 with KOH.
Compounds were dissolved in DMSO (100%) and made up in the external bather at a concentration of 1 μM. All experiments were conducted at room temperature (22-24° C.).
A cell suspension (10 ml), with a density of 100,000 cells/ml, was aliquoted into a 15 ml centrifuge tube and transferred to an incubator (37° C., 5% CO2) for approximately one hour before use. Following 60 min incubation, a tube was taken and centrifuged at 1000 rpm for 4 mins at mom temperature. 9.5 ml supernatant was thence discarded, leaving a cell pellet a the bottom of the tube. The pellet was then resuspended using 100 μl of cold (4° C.), filtered (0.22 μm), 0.2% BSA/bather solution (0.02 g BSA/10 ml bather). The bottom of the tube was manually agitated gently until the solution became cloudy with cells. The 100 μl cell resuspension solution was then stored on the bench at 4° C. (using a Peltier-based temperature control device) until used.
A length of capillary glass (1B150F-4, WPI) was dipped into the cell suspension solution, such that ˜3 cm column of fluid was taken up by capillary action. A Ag/AgCl wire was dropped into the non-dipped end of the capillary also. The outside of the solution-filled end of the capillary was then dried and the capillary was loaded into the AutoPatch™.
Borosilicate glass patch pipettes (from 1.5 mm OD, thin-walled filamented, GC150-TF capillary glass, Harvard) were pulled using a DMZ pipette puller (Zeitz instruments), and were back-filled using the internal pipette solution, being careful that no bubbles remain at the tip or in the body of the pipette. Patch pipettes typically had resistances of 2.3-3.5 MΩ. Once filled, the pipette tip and a proportion of the shaft (˜15 mm) were dipped into Sigmacote (Sigma). The recording pipette was then loaded into the AutoPatch™. Automated patch-clamping was initiated by the operator, but thereafter AutoPatch.exe continued the experiment providing that pre-set conditions and criteria were satisfied.
Whole cell patch-clamp recordings were made using the AutoPatch™ rig, which incorporated an EPC9 amplifier (HEKA, Germany) under control of Pulse software (v8.54, HEKA, Germany), a motion controller with 2 translators (Newport, UK), valve controller (VFI) and a c-level suction device all at room temperature (22-24° C.). This equipment was completely under the control of AutoPatch.exe and operator intervention was only made when there was a requirement to refill the drug reservoirs or to prevent the loss of a cell due to a technical error. Cells with an Rseries greater than 18 MΩ were discounted from the experiment.
Qualification stages prior to perfusion and drug application ensured that the observed current met the criteria for the experiment. Only those cells with an 1K>500 pA were used for experiments. Cells were continuously perfused with external solution at a flow rate of 1.8-2 ml/minute. […]
Electrophysiology voltage-step protocols and analysis of data was performed as follows. […] Currents were analysed using Pulsefit software (v8.54, HEKA, Germany), with the total charge measured during the whole of the voltage step. […]

The structures appear in SMILES notation.

T1 sequence (P22001 whole entry): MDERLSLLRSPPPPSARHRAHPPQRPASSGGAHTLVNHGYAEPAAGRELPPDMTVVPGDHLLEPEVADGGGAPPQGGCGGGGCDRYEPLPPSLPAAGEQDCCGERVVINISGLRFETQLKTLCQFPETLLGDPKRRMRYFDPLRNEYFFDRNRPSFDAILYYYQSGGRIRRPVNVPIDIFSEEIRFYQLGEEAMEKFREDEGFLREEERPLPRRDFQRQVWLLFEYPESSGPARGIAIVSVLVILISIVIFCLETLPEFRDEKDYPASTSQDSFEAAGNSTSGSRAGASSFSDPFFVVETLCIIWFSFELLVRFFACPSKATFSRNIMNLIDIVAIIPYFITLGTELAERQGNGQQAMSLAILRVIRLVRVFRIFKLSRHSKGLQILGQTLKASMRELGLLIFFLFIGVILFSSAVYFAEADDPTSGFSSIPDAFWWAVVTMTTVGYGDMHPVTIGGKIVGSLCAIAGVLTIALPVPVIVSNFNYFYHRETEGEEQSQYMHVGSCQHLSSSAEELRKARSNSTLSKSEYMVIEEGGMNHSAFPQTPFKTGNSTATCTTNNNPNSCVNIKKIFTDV
Chain of hKv1.5 (P22460 whole entry): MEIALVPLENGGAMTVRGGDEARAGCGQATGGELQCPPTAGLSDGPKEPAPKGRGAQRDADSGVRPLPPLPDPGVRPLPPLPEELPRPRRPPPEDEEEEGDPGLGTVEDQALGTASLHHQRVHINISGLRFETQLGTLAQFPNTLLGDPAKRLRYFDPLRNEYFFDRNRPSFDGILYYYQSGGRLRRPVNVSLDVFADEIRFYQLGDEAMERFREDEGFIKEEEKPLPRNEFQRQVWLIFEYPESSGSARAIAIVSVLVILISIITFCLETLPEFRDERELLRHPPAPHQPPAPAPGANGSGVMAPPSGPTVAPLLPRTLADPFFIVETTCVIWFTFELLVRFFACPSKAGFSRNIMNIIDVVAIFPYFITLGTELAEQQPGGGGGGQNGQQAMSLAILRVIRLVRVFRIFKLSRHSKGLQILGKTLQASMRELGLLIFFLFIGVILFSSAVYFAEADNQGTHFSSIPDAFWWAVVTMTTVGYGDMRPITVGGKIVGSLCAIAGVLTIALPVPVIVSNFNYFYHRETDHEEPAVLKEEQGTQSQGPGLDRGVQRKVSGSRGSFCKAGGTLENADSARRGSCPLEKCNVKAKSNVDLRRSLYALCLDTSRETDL

As for `CC(C)NC(=O)c1cccc(N(Cc2ccc(Cl)cc2)S(=O)(=O)c2ccnn2C)c1` [Example 7, 3-[(4-Chloro-benzyl)-(2-methyl-2H-pyrazole-3-sulfonyl)-amino]-N-isopropyl-benzamide], the inhibition at 1 µM in assay [1] was 57%; in assay [2], 54%.

Regarding `CC(=O)Nc1ccc(S(=O)(=O)N(Cc2ccccc2)c2cccc(C(=O)NC(C)C)c2)cc1` [Example 5, 3-[(4-Acetylamino-benzenesulfonyl)-benzyl-amino]-N-isopropyl-benzamide], the figures for the inhibition at 1 µM in assay [1] and in assay [2] were 45% and 18%, respectively.

Take `Cn1ccc(S(=O)(=O)N(Cc2ccc(Cl)cc2)c2cccc(C(=O)NCCO)c2)n1` [Example 1, 3-[(4-Chloro-benzyl)-(1-methyl-1H-pyrazole-3-sulfonyl)-amino]-N-(2-hydroxy-ethyl)-benzamide]: the inhibition at 1 µM in assay [1] is 86%; in assay [2], 48%.

In the case of `CC(C)NC(=O)c1cccc(N(Cc2ccccc2)S(=O)(=O)c2cccnc2)c1` [Example 3, 3-[Benzyl-(pyridine-3-sulfonyl)-amino]-N-isopropyl-benzamide], the inhibition at 1 µM in assay [1] stood at 92%; in assay [2], 52%.

As to `O=C(Nc1ccc2cn[nH]c2c1)c1cccc(N(Cc2ccccc2)S(=O)(=O)c2ccccc2)c1` [Example 4, 3-(Benzenesulfonyl-benzyl-amino)-N-(1H-indazol-6-yl)-benzamide], the figures for the inhibition at 1 µM in assay [1] and in assay [2] were 88% and 99%, respectively.
